pIC50: −log10 of the molar value.
System: PDC 899932-113-R3-J6 complex spheroid viability
Assay: Anticancer human tumor 899932-113-R3-J6-PDC patient-derived melanoma cell line growth inhibition [RAS]
Conditions: for pIC50: curve of first compound; for viability, T/C: stronger effect = lower value
Procedure, shortened: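 Agents were tested in combination matrices in half-log decrements from a top concentration at or near clinical Cmax (10 microM if undetermined). Targets were multi-cell spheroids of tumour lines plus HUVEC and MSC stromal cells.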

[1] = second compound 0.000949 µM, first compound 0.0316 µM
[2] = second compound 0.000949 µM, first compound 0.1 µM
[3] = second compound 0.000949 µM, first compound 0.316 µM
[4] = second compound 0.000949 µM, first compound 1 µM
[5] = second compound 0.000949 µM, first compound 3.16 µM
[6] = second compound 0.000949 µM, first compound 10 µM
[7] = second compound 0.003 µM, first compound 0.0316 µM
[8] = second compound 0.003 µM, first compound 0.1 µM
[9] = second compound 0.003 µM, first compound 0.316 µM
[10] = second compound 0.003 µM, first compound 1 µM
[11] = second compound 0.003 µM, first compound 3.16 µM
[12] = second compound 0.003 µM, first compound 10 µM
[13] = second compound 0.00949 µM, first compound 0.0316 µM
[14] = second compound 0.00949 µM, first compound 0.1 µM
[15] = second compound 0.00949 µM, first compound 0.316 µM
[16] = second compound 0.00949 µM, first compound 1 µM
[17] = second compound 0.00949 µM, first compound 3.16 µM
[18] = second compound 0.00949 µM, first compound 10 µM
[19] = second compound 0.03 µM, first compound 0.0316 µM
[20] = second compound 0.03 µM, first compound 0.1 µM
[21] = second compound 0.03 µM, first compound 0.316 µM
[22] = second compound 0.03 µM, first compound 1 µM
[23] = second compound 0.03 µM, first compound 3.16 µM
[24] = second compound 0.03 µM, first compound 10 µM
[25] = second compound 0.0949 µM, first compound 0.0316 µM
[26] = second compound 0.0949 µM, first compound 0.1 µM
[27] = second compound 0.0949 µM, first compound 0.316 µM
[28] = second compound 0.0949 µM, first compound 1 µM
[29] = second compound 0.0949 µM, first compound 3.16 µM
[30] = second compound 0.0949 µM, first compound 10 µM
[31] = second compound 0.3 µM, first compound 0.0316 µM
[32] = second compound 0.3 µM, first compound 0.1 µM
[33] = second compound 0.3 µM, first compound 0.316 µM
[34] = second compound 0.3 µM, first compound 1 µM
[35] = second compound 0.3 µM, first compound 3.16 µM
[36] = second compound 0.3 µM, first compound 10 µM
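Throughout, for viability, T/C: spheroids exposed to agents for seven days before readout; 100% = DMSO vehicle control wells.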

With `CC(C)NCC(C(=O)N1CCN(c2ncnc3c2C(C)CC3O)CC1)c1ccc(Cl)cc1` (stereo unspecified) + CCn1c(-c2cc(N3CCN(C)CC3)cnc2C(C)OC)c2c3cc(ccc31)-c1csc(n1)CC(NC(=O)C1CC1C)C(=O)N1CCCC(N1)C(=O)OCC(C)(C)C2 the pIC50 (second compound 0.000949 µM) was 5.93, the pIC50 (second compound 0.003 µM) was > 7.50 and the pIC50 (second compound 0.00949 µM) was > 7.50. The pIC50 (second compound 0.03 µM) was > 7.50, the pIC50 (second compound 0.0949 µM) was > 7.50 and the pIC50 (second compound 0.3 µM) was > 7.50. For the same molecule, the viability, T/C [1] was 80.5%, the viability, T/C [2] was 75.4% and the viability, T/C [3] was 61.7%. The viability, T/C [4] was 53.7%, the viability, T/C [5] was 37.1% and the viability, T/C [6] was 14.6%. It also gave a viability, T/C [7] of 34.5%, a viability, T/C [8] of 32.8% and a viability, T/C [9] of 26.5%. It also gave a viability, T/C [10] of 19.6%, a viability, T/C [11] of 10% and a viability, T/C [12] of 5.05%. It also gave a viability, T/C [13] of 4.77%, a viability, T/C [14] of 3.31% and a viability, T/C [15] of 3.85%. The viability, T/C [16] was 2.39%, the viability, T/C [17] was 1.83% and the viability, T/C [18] was 1.29%. For the same molecule, the viability, T/C [19] was 3.08%, the viability, T/C [20] was 2.84% and the viability, T/C [21] was 2.3%. For the same molecule, the viability, T/C [22] was 1.95%, the viability, T/C [23] was 0.99% and the viability, T/C [24] was 0.77%. The viability, T/C [25] was 2.64%, the viability, T/C [26] was 2.19% and the viability, T/C [27] was 2.43%. It also gave a viability, T/C [28] of 1.31%, a viability, T/C [29] of 1.13% and a viability, T/C [30] of 0.37%. For the same molecule, the viability, T/C [31] was 1.88%, the viability, T/C [32] was 2.14% and the viability, T/C [33] was 2.14%. It also gave a viability, T/C [34] of 0.97%, a viability, T/C [35] of 0.62% and a viability, T/C [36] of 0.36%.

In the case of `CC1(O)CCCC1n1c(=O)c(C(F)F)cc2cnc(NC3CCN(S(C)(=O)=O)CC3)nc21` (stereo unspecified) + CCn1c(-c2cc(N3CCN(C)CC3)cnc2C(C)OC)c2c3cc(ccc31)-c1csc(n1)CC(NC(=O)C1CC1C)C(=O)N1CCCC(N1)C(=O)OCC(C)(C)C2, the pIC50 (second compound 0.000949 µM) was 6.62, the pIC50 (second compound 0.003 µM) was > 7.50 and the pIC50 (second compound 0.00949 µM) was > 7.50. The pIC50 (second compound 0.03 µM) was > 7.50, the pIC50 (second compound 0.0949 µM) was > 7.50 and the pIC50 (second compound 0.3 µM) was > 7.50. It also gave a viability, T/C [1] of 77.9%, a viability, T/C [2] of 54.2% and a viability, T/C [3] of 49.5%. The viability, T/C [4] was 39.3%, the viability, T/C [5] was 37.1% and the viability, T/C [6] was 27.2%. It also gave a viability, T/C [7] of 41.5%, a viability, T/C [8] of 33% and a viability, T/C [9] of 27.5%. The viability, T/C [10] was 25.6%, the viability, T/C [11] was 26.6% and the viability, T/C [12] was 14.1%. For the same molecule, the viability, T/C [13] was 4.88%, the viability, T/C [14] was 6.46% and the viability, T/C [15] was 7.99%. It also gave a viability, T/C [16] of 9.02%, a viability, T/C [17] of 8.75% and a viability, T/C [18] of 4.7%. It also gave a viability, T/C [19] of 2.99%, a viability, T/C [20] of 2.96% and a viability, T/C [21] of 3.21%. It also gave a viability, T/C [22] of 3.04%, a viability, T/C [23] of 3.2% and a viability, T/C [24] of 1.24%. It also gave a viability, T/C [25] of 2.41%, a viability, T/C [26] of 2.7% and a viability, T/C [27] of 2.57%. For the same molecule, the viability, T/C [28] was 3.02%, the viability, T/C [29] was 2.41% and the viability, T/C [30] was 0.82%. The viability, T/C [31] was 1.98%, the viability, T/C [32] was 2.13% and the viability, T/C [33] was 2.07%. For the same molecule, the viability, T/C [34] was 1.97%, the viability, T/C [35] was 2.39% and the viability, T/C [36] was 0.63%.

`CC1(O)CCCC1n1c(=O)c(C(F)F)cc2cnc(NC3CCN(S(C)(=O)=O)CC3)nc21` (stereo unspecified) + C#Cc1c(F)ccc2cc(O)cc(-c3ncc4c(N5CC6CCC(C5)N6)nc(OCC56CCCN5CC(F)C6)nc4c3F)c12 gave a pIC50 (second compound 0.0316 µM) of 5.61, a pIC50 (second compound 0.1 µM) of 5.59 and a pIC50 (second compound 0.316 µM) of 5.49. The pIC50 (second compound 1 µM) was 5.46, the pIC50 (second compound 3.16 µM) was 5.52 and the pIC50 (second compound 10 µM) was 5.51. It also gave a viability, T/C (second compound 0.0316 µM, first compound 0.0316 µM) of 105%, a viability, T/C (second compound 0.0316 µM, first compound 0.1 µM) of 81.1% and a viability, T/C (second compound 0.0316 µM, first compound 0.316 µM) of 70.8%. It also gave a viability, T/C (second compound 0.0316 µM, first compound 1 µM) of 69.9%, a viability, T/C (second compound 0.0316 µM, first compound 3.16 µM) of 54.9% and a viability, T/C (second compound 0.0316 µM, first compound 10 µM) of 21.6%. For the same molecule, the viability, T/C (second compound 0.1 µM, first compound 0.0316 µM) was 96.2%, the viability, T/C (second compound 0.1 µM, first compound 0.1 µM) was 86.9% and the viability, T/C (second compound 0.1 µM, first compound 0.316 µM) was 63.6%. It also gave a viability, T/C (second compound 0.1 µM, first compound 1 µM) of 62.3%, a viability, T/C (second compound 0.1 µM, first compound 3.16 µM) of 62% and a viability, T/C (second compound 0.1 µM, first compound 10 µM) of 24.5%. The viability, T/C (second compound 0.316 µM, first compound 0.0316 µM) was 99.2%, the viability, T/C (second compound 0.316 µM, first compound 0.1 µM) was 93% and the viability, T/C (second compound 0.316 µM, first compound 0.316 µM) was 75.9%. For the same molecule, the viability, T/C (second compound 0.316 µM, first compound 1 µM) was 65.3%, the viability, T/C (second compound 0.316 µM, first compound 3.16 µM) was 56.6% and the viability, T/C (second compound 0.316 µM, first compound 10 µM) was 25.5%. The viability, T/C (second compound 1 µM, first compound 0.0316 µM) was 102%, the viability, T/C (second compound 1 µM, first compound 0.1 µM) was 89.7% and the viability, T/C (second compound 1 µM, first compound 0.316 µM) was 76.3%. For the same molecule, the viability, T/C (second compound 1 µM, first compound 1 µM) was 70%, the viability, T/C (second compound 1 µM, first compound 3.16 µM) was 58.4% and the viability, T/C (second compound 1 µM, first compound 10 µM) was 24.7%. It also gave a viability, T/C (second compound 3.16 µM, first compound 0.0316 µM) of 114%, a viability, T/C (second compound 3.16 µM, first compound 0.1 µM) of 97.8% and a viability, T/C (second compound 3.16 µM, first compound 0.316 µM) of 69.8%. The viability, T/C (second compound 3.16 µM, first compound 1 µM) was 72.2%, the viability, T/C (second compound 3.16 µM, first compound 3.16 µM) was 62.4% and the viability, T/C (second compound 3.16 µM, first compound 10 µM) was 22.2%. For the same molecule, the viability, T/C (second compound 10 µM, first compound 0.0316 µM) was 114%, the viability, T/C (second compound 10 µM, first compound 0.1 µM) was 89% and the viability, T/C (second compound 10 µM, first compound 0.316 µM) was 77.2%. For the same molecule, the viability, T/C (second compound 10 µM, first compound 1 µM) was 68.8%, the viability, T/C (second compound 10 µM, first compound 3.16 µM) was 64.8% and the viability, T/C (second compound 10 µM, first compound 10 µM) was 11.3%.

— PubChem BioAssay AID2060895 (Molecular Pharmacology Branch, DTP, NCI, 2025)
